Experimental data from EP4678629A1, “IONIZABLE LIPID MOLECULE, PREPARATION METHOD THEREFOR AND USE THEREOF” (Maxirna (Shanghai) Pharmaceutical Co., Ltd., priority 2023, dated 2024).

Assays:
[1] = Encapsulation efficiency of the lipid nanoparticle (eGFP mRNA) by Ribogreen method; type: physicochemical; conditions: LNP encapsulating eGFP mRNA, ionizable lipid/DOPE/cholesterol/DMG-PEG2000 50/10/48.25/1.25 mol%, N/P 12
Experimental: (§1) The ionizable lipid compound and positive control 1 from Example I were dissolved in ethanol at a molar ratio of 50:10:48.25:1.25 with DOPE, cholesterol, and DMG-PEG2000 (all purchased from A.V.T (Shanghai) Pharmaceutical Co., Ltd.) to prepare an ethanol lipid solution. The enhanced green fluorescent protein (eGFP) mRNA was diluted in 20 mM citrate buffer (pH=6.1) to obtain an mRNA aqueous solution. By using a microfluidic device (Micro&Nano Biologics Co., Ltd., model: INano ™ L) mix ethanol lipid solution and mRNA aqueous solution in a volume ratio of 1:3 to prepare a lipid nanoparticle with a total lipid to mRNA N/P ratio of 12. The medium was replaced by ultrafiltration, ethanol was removed and volumed with DPBS. Finally, the lipid nanoparticle was filtered through a 0.2 µm sterile filter to obtain an LNP preparation encapsulating eGFP mRNA using ionizable lipid/DOPE/cholesterol/DMG-PEG2000 (50/10/48.25/1.25 mol%), with an mRNA content of 0.002 mg/ml-0.5 mg/mL.
(§2) Using Malvern Zetasizer Nano ZS (Malvern UK), the size and polydispersity index (PDI) of the lipid nanoparticle were determined by dynamic light scattering in 173° backscatter detection mode, and the encapsulation efficiency was measured by Ribogreen method.

[2] = Size and polydispersity index (PDI) of the lipid nanoparticle by dynamic light scattering; type: physicochemical; conditions: LNP encapsulating eGFP mRNA, ionizable lipid/DOPE/cholesterol/DMG-PEG2000 50/10/48.25/1.25 mol%, N/P 12; for Particle size: in nm (unit assumed)
Experimental: as §1, §2

DC2.4 cells = assay: In vitro transfection of cells with eGFP-mRNA lipid nanoparticle (LNP preparation), fluorescence imaging and flow cytometry; type: cell-based, mouse; conditions: for Cell viability, % / Positive rate, %: DC2.4 cells, 200 ng of mRNA per well, after 24 hours; for Positive rate, %: eGFP positivity rate; for Mean fluorescence intensity: eGFP-mRNA expression on DC2.4 after 24 hours, normalized based on Example 11
Text: (§3) This example used mouse bone marrow-derived dendritic cells DC2.4 (purchased from Millipore) as the validation cell line for a lipid nanoparticle transfection experiment. DC2.4 cells adhered to the wall for growth. All operational steps of cell culture strictly followed the prescribed procedures, using sterile reagents for aseptic operations under a sterile workbench. The main operational steps involved were as follows: • 1) Cell recovery: the preserved cell cryopreservation solution was removed from the -80 °C freezer and immediately placed in a 37 °C water bath for rapid and continuous shaking, allowing it to completely melt within one minute. Fresh culture medium was added to a 15 mL centrifuge tube in advance, and the cell fluid was added to the centrifuge tube in a biosafety cabinet. A centrifuge tube of the same mass was taken, placed symmetrically in the centrifuge, and centrifuged at low speed for 5 minutes at 1200 rpm. After centrifugation, the upper clear liquid was removed, and an appropriate amount of culture medium was slowly added along the tube wall. After the cells were gently blown and dispersed evenly, the cell suspension was drawn and added to the prepared culture bottle. The state and distribution of cells in the early stage of recovery were observed under a microscope. The culture bottle was incubated in a 5% CO2 incubator at 37 °C, and the recovery time was recorded. • 2) Cell passaging: Under a microscope, if the cell density in the field of view reached 80%-90%, cells could be passaged and cultured. Adherent cells required trypsin digestion. In order to avoid residual serum in the culture medium reducing trypsin activity, the original culture medium was removed, and DPBS solution was added to wash once. After suctioning out the DPBS solution, trypsin was added to degrade the protein at the intercellular junction, thereby separating the cells and facilitating further cultivation. The mixture was gently shaken well and placed into the incubator for digestion for 2-3 minutes. After digestion was complete, an appropriate amount of culture medium was immediately added to the original culture dish to terminate digestion. Finally, a pipette was used to carefully blow off the cells and blow them until they were evenly dispersed, and then the cells were inoculated and subcultured in a certain proportion according to experimental requirements.
(§4) Transfection of DC2.4 cells • 1) DC2.4 cell recovery: the frozen DC2.4 cells were taken out from the -80 °C refrigerator and immediately put into a 37 °C water bath for rapid thawing. After melting, they were added to the preheated culture medium, and centrifuged at 1200 rpm for 5 minutes. The supernatant was discarded, and an appropriate amount of DMEM medium containing 10% FBS was added to resuspend the recovered DC2.4 cells, which were placed in a 37 °C, 5% CO2 incubator for activation culture. • 2) According to experimental requirements, DC2.4 cells were transfected into 24 well plates one day in advance. By counting cells, the number and viability of cells were recorded, and a cell suspension with 2 × 10^5 cells per well were taken. Then, a certain volume of DMEM medium containing 10% FBS was added and mixed evenly, wherein 1 mL was added per well for subsequent transfection experiments. • 3) After 24 hours, the culture medium was gently aspirated with a pipette 30 minutes in advance, and each well was washed with 1 mL of DPBS and aspirated. […] The mixture was placed in a 37 °C, 5% CO2 incubator for activation cultivation. • 6) After 24 hours, cell viability (%), eGFP positivity rate (%), and mean fluorescence intensity data were obtained through cell fluorescence imaging and flow cytometry.

[3] = as above; type: cell-based, mouse; conditions: mouse, dc2.4 cells, 200 ng of mRNA per well, after 24 hours; read-out: Cell viability, %
Text: as §3, §4

Compound | Encapsulation rate, % [1] | PDI [2] | Cell viability, % (DC2.4 cells) | Positive rate, % (DC2.4 cells) | Mean fluorescence intensity (DC2.4 cells) | Particle size [2] | viability at 24 h [3] | Cell viability, % (DC2.4 cells; 1440 min)
4,4'-(3-(((2-hydroxyethyl)((E)-4-oxo-4-(undecyloxy)but-2-en-1-yl)amino)propyl)azadiyl)(2E,2'E)-di(but-2-enoic acid) [Example 105] | 66.08% | 0.24 | 95.8% | 78.32% | 0.39 | – | – | –
4,4'-didecyl((4-(decyloxy)-4-oxobutyl)(3-hydroxypropyl)amino)butyl)azetidinyl)dibutanoate [Example 102] | 93.93% | 0.12 | 94.6% | 93.18% | 1.28 | 94.58 | – | –
8-((6Z,10Z,46Z,49Z)-30-(3-hydroxypropyl)-20,36-dioxo-26,30-diaza-19,37-dioxapentatriacontane-6,9,46,49-tetraen-26-yl)(7Z,10Z)-hexadec-7,10-dien-1-yl octanoate [Example 96] | 93.34% | 0.13 | 96.6% | 94.64% | 0.97 | 89.25 | – | –
CCCCCCCCC(CCCCCCCC)OC(=O)CCCCCCCN(CCO)CCCN(CCCCCCCC(=O)OC(CCCCCCCC)CCCCCCCC)CCCCCCCC(=O)OC(CCCCCCCC)CCCCCCCC [Example 2, Di(heptadecane-9-yl)8,8'-((3-((8-(heptadecane-9-oxy)-8-oxooctyl)(2-hydroxyethyl)amino)propyl)azanediyl)dioctanoate] | 97.27% | 0.24 | – | 73.48% | – | – | 82.9% | –
CC(C)=CCC/C(C)=C/COC(=O)CCCCCCCN(CCO)CCCN(CCCCCCCC(=O)OC/C=C(\C)CCC=C(C)C)CCCCCCCC(=O)OC/C=C(\C)CCC=C(C)C [Example 3, Di((E)-3,7-dimethyloctan-2,6-dien-1-yl)8,8'-((3-((8-(((E)-3,7-dimethyloctan-2,6-dien-1-yl)oxo)-8-oxooctyl)(2-hydroxyethyl)amino)propyl)azanediyl)dioctanoate] | 95.96% | 0.12 | – | 93.43% | – | 92.13 | 68.6% | –
CCCCCCCOC(=O)CCCCCCCN(CCO)CCCN(CCCCCCCC(=O)OCCCCCCC)CCCCCCCC(=O)OCCCCCCC [Example 4, Diheptyl 8,8'-((3-((8-(heptyloxy)-8-oxooctyl)(2-hydroxyethyl)amino)propyl)azanediyl)dioctanoate] | 60.89% | 0.25 | – | 78.26% | – | – | 75.9% | –
CCCCCOC(=O)CCCCCCCN(CCO)CCCN(CCCCCCCC(=O)OCCCCC)CCCCCCCC(=O)OCCCCC [Example 5, Dipentyl 8,8'-((3-((2-hydroxyethyl)(8-oxo-8-(pentyloxy)octyl)amino)propyl)azanediyl)dioctanoate] | 94.14% | 0.16 | – | 83.41% | – | – | 86.6% | –
CCCCCCCCCCCOC(=O)CCCCN(CCO)CCCN(CCCCC(=O)OCCCCCCCCCCC)CCCCC(=O)OCCCCCCCCCCC [Example 38, Diundecyl 5,5'-((3-((2-hydroxyethyl)(5-oxo-5-(undecyloxy)pentyl)amino)propyl)azadiyl)dipentanoate] | 99.04% | 0.10 | – | 90.28% | – | 65.19 | – | 94.1%
CCCCC/C=C\C/C=C\CCCCCCCCOC(=O)CCCCCCCN(CCO)CCCN(CCCCCCCC(=O)OCCCCCCCC/C=C\C/C=C\CCCCC)CCCCCCCC(=O)OCCCCCCCC/C=C\C/C=C\CCCCC [Example 79] | 99.80% | 70.67 | – | 95.05% | – | 99.80 | – | 95.0%
CCCCCCCCCCCCOC(=O)CCCN(CCCO)CCCCN(CCCC(=O)OCCCCCCCCCCCC)CCCC(=O)OCCCCCCCCCCCC [Example 84] | 97.58% | 0.11 | – | 96.42% | – | 89.72 | – | 90.2%
CCCCCCCCCCCCCOC(=O)CCCN(CCCO)CCCCN(CCCC(=O)OCCCCCCCCCCCCC)CCCC(=O)OCCCCCCCCCCCCC [Example 85, 4,4'-((4-((3-hydroxypropyl)(4-oxo-4-(tridecyloxy)butyl)amino)butyl)azetidinyl)dibutyric acid diester] | 93.32% | 0.10 | – | 96.2% | – | – | – | 95.9%
CCCCCCCCCCCCCOC(=O)CCCCCCCN(CCO)CCCN(CCCCCCCC(=O)OCCCCCCCCCCCCC)CCCCCCCC(=O)OCCCCCCCCCCCCC [Example 90, Tridecyl 8-(29-hydroxy-15-oxo-23-(8-oxo-8-(tridecyloxy)octyl)-23,27-diaza-14-oxanonacosane-27-yl)octanoate] | 94.33% | 0.14 | – | 92.38% | – | 84.42 | – | 91.6%
CCCCCCCCCCCOC(=O)CCCCCCCCCN(CCO)CCCN(CCCCCCCCCC(=O)OCCCCCCCCCCC)CCCCCCCCCC(=O)OCCCCCCCCCCC [Example 91, Undecyl 10-(29-hydroxy-13-oxo-23-(10-oxo-10-(undecyl)oxydecyl)-23,27-diaza-12-oxanonacosane-27-yl)caprate] | 79.63% | 0.24 | – | 62.74% | – | – | – | 91.4%
CCCCCC/C=C\COC(=O)CCCCCCCCCN(CCO)CCCN(CCCCCCCCCC(=O)OC/C=C\CCCCCC)CCCCCCCCCC(=O)OC/C=C\CCCCCC [Example 92, 10-((7Z)-27-hydroxy-21-(10-(((2Z)-non-2-enyl)oxy)-10-oxodecyl)-11-oxo-21,25-diaza-10-oxaheptacosane-7-en-25-yl)decanoic acid-(2Z)-non-2-en-1-yl ester] | 76.22% | 0.28 | – | 73.64% | – | – | – | 92.6%
CC/C=C\COC(=O)CCCCCCCN(CCO)CCCN(CCCCCCCC(=O)OC/C=C\CC)CCCCCCCC(=O)OC/C=C\CC [Example 97] | 67.68% | 0.34 | – | 83.64% | – | – | – | 90.5%
Tetratridecyl 8,8',8",8"-(((3-hydroxypropyl)azadiyl)di(propane-3,1-diyl))di(azanetriyl)tetraoctanoate [Example 99] | 69.17% | 0.26 | 93.2% | 77.44% | 0.49 | – | – | –
